From article PMC12250713, “Identification and Characterization of Novel Inhibitors of Human Poly(ADP-Ribose) Polymerase-1” (Molecules, 2025)
Several values for one entry are separate records, joined by “and”; a condition that tells them apart may be missing. Equal values may be shown once. Entries after “also recorded” stand apart in the source; their conditions may differ. Values belong to the compound of their own block, whether it stands above or below them.

Key:
[1] = target: T1, hPARP-1 (Homo sapiens, UniProt P09874); test: hPARP-1 enzyme assay (NAD+ cycling reaction, resorufin fluorescence read-out); type: biochemical; settings: for IC50: 0.1-50 µM, mean ± SD, two biological replicates; for inhibition at 10 µM: concentration of 10 µM; for decline in PARPi activity compared with compound 54: replacement of the fluoride group; for PARPi activity at the enzyme level compared to the OLP core structure phthalazin-1(2H)-one: own IC50 vs literature IC50 12 µM; for reduction in the PARPi activity compared with compound 57: modification at the thiomethyl group
T1 construct: purchased Bio-Techne (Minneapolis, MN, USA)
Description: The putative PARP inhibitors, which were pre-selected in the in silico study, were subsequently evaluated by using an optimized biochemical hPARP-1 enzyme assay. The experiment was performed in black half-area 96-well plates. For the PARP reaction, 12.5 µL of PARP reaction solution were added. The solution was composed of 0.5 µg deoxyribonucleic acid (DNA) sodium salt from calf thymus, 2 U of recombinant hPARP-1, and 1 µL of the compound of interest in PARP reaction buffer (50 mM TRIS and 2 mM MgCl2 in ddH2O, pH = 8). These test compounds’ working solutions were prepared from 20 mM DMSO stock solutions and diluted using PARP reaction buffer to reach 25× of the required final concentration to be tested. […] Afterwards, 12.5 µL of NAD^+ solution were added to all wells to reach a final NAD^+ concentration of 50 nM, and to start the enzyme reaction.
Besides PARP reaction wells, NAD^+ calibration wells were included to measure the linearity of the detection of NAD^+ concentrations. In each well, 12.5 µL of NAD^+ calibration solution were added. The solution was composed of 0.5 µg deoxyribonucleic acid (DNA) sodium salt from calf thymus in PARP reaction buffer. Finally, 12.5 µL of decreasing concentrations of NAD^+ solution were added to the calibration wells (final concentrations: 50, 40, 30, 20, 10, 0 nM).
Subsequently, the assay plate including both the PARP reaction and NAD^+ calibration wells was gently shaken and incubated at 25 °C in the dark for 90 min. After incubation, 25 µL of detection solution were added to each well. […] The assay plate was again gently shaken and incubated at 25 °C in the dark for 40 min.
Following the aforementioned protocol, the compounds that were predicted by the in silico study as putative hPARP-1 inhibitors were tested at two different concentrations (1 and 10 µM). […] The IC50s were calculated by using GraphPad Prism software and a non-linear four-parametric regression function.

[2] = test system: MDA-MB-468 cells; test: cells; type: cell-based; settings: for cytotoxic activity as a monotherapy against MDA-MB-468: CV assay
Description: (§1) Cells were seeded in 96-well cell culture plates and were allowed to adhere for 24 h in a humidified atmosphere with 5% CO2 at 37 °C. Afterward, cells were treated with the test items at several concentrations for 72 h. […] After finalization of the intended 72 h treatment, the treatment solutions were discarded, and the cells were washed once with PBS. Subsequently, the cells were fixed by incubation in 4% (v/v) paraformaldehyde in PBS for 15 min at room temperature (RT). The fixing solution was discarded, and the cells were allowed to dry at RT for 15 min. The cells were stained with 0.1% (w/v) crystal violet in PBS for 15 min at RT, then washed with ddH2O and dried overnight at RT. […] The obtained absorbance data were normalized based on the negative and positive controls representing 100% and 0% cell viability, respectively. IC50 values were calculated by using a four-parametric non-linear regression analysis in GraphPad Prism software.
(§2) Finally, cell viability was determined by using the CV assay, and IC50 values were calculated as mentioned above.

[3] = test system: BT-474 cells; test: crystal violet (CV) cell viability assay, single and combined with TMZ; type: cell-based
Description: as §1, §2

[4] = target: T2, hPARP-1 in BT-474 cells (Homo sapiens, UniProt P09874); test: fluorescence microscopy, competitive displacement of PARPi-FL; type: cell-based; settings: BT-474, 72 h with 100 µM compound 57 or 1.56 µM OLP, then 250 nM PARPi-FL 20 min
T2 construct: endogenous in cells; host or cells: BT-474
Description: For the determination of the interaction of the proposed PARPi and the PARP binding pocket inside the treated cells, a fluorescence microscopic inspection was performed. Using a green fluorescently labeled molecule named PARPi-FL that is characterized by the ability to occupy specifically the binding pocket of the PARP enzyme. Moreover, in case of its competitive replacement by PARPi molecules a reduction in its fluorescent signal is detectable. Thus, cells were seeded in 6-well plates and incubated in a humidified atmosphere with 5% CO2 for 24 h at 37 °C. […] Subsequently, the treatment solutions were discarded, and the cells were washed with PBS. […] Finally, cells were imaged by using the GFP channel of an EVOS™ FL Auto Imaging System (Thermo Fisher Scientific, Waltham, MA, USA).

[5] = test system: 184B5 cells; test: crystal violet (CV) cell viability assay, single and combined with TMZ; type: cell-based; settings: Homo sapiens, 184B5, 72 h; read-out: IC50 of TMZ, alone or combined
Description: as §1, §2

[6] = test system: HCC1937 cells; test: as above; type: cell-based; settings: Homo sapiens, HCC1937, 72 h; read-out: IC50 of TMZ, alone or combined
Description: as §1, §2

[7] = test system: MCF-7 cells; test: as above; type: cell-based; settings: Homo sapiens, MCF7, 72 h; read-out: IC50 of TMZ, alone or combined
Description: as §1, §2

T1 sequence (P09874 whole entry): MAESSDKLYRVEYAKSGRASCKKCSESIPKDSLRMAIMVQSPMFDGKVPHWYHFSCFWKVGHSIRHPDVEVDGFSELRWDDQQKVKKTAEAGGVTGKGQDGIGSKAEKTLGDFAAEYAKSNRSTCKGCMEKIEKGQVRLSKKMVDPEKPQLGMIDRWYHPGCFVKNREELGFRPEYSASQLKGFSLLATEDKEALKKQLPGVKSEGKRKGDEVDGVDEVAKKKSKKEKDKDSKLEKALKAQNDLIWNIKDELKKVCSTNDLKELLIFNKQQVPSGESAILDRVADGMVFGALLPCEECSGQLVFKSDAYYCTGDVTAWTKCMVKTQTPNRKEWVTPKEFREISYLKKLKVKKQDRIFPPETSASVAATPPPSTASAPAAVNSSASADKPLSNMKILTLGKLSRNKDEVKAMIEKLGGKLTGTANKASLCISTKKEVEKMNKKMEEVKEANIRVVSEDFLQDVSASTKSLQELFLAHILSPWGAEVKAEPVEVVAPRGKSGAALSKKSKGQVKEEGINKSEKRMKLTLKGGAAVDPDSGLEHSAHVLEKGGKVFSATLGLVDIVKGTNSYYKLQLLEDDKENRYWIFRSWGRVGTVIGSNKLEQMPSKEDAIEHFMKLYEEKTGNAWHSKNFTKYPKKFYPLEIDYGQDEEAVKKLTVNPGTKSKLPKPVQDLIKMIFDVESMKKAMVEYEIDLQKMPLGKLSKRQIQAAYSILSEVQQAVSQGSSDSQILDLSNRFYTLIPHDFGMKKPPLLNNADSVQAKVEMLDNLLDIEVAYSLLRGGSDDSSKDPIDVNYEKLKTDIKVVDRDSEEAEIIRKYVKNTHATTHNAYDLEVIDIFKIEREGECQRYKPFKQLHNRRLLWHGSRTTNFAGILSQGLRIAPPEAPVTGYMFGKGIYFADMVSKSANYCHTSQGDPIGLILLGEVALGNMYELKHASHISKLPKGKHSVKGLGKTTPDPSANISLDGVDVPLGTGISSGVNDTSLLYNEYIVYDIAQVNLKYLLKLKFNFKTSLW
T2 sequence (P09874 whole entry): as above

Compound: COc1cccc(Nc2nc3ccccc3c(=O)[nH]2)c1 [Compound 18]
IC50 [1]: 23.5 ± 8.74 µM
inhibition at 10 µM [1]: > 50%

Compound: COc1ccc(C(=O)Nc2nc3c(c(=O)[nH]2)CCCC3)cc1 [Compound 21]
IC50 [1]: 14.9 ± 4.92 µM
inhibition at 10 µM [1]: > 50%
decline in PARPi activity compared with compound 54 [1]: at least three-fold

Compound: O=c1[nH]nc(CNc2ccc([N+](=O)[O-])cc2)c2ccccc12 [Compound 22]
IC50 [1]: 4.57 ± 4.89 µM
inhibition at 10 µM [1]: > 50%

Compound: N#CCc1n[nH]c(=O)c2ccccc12 [Compound 58]
IC50 [1]: 4.86 ± 0.63 µM
inhibition at 10 µM [1]: > 50%

Compound: CSc1nc2ccccc2c(=O)n1C [Compound 62]
hPARP-1 inhibitor activity compared with compound 57 (SAR, in words) [1]: complete abolishment of hPARP-1 inhibitor activity
IC50 [1]: > 10 µM

Compound: COc1cc2nc(SC)[nH]c(=O)c2cc1OC [Compound 64]
hPARP-1 inhibitor activity compared with compound 57 (SAR, in words) [1]: dramatic decrease in activity
IC50 [1]: > 10 µM

Compound: C#CCSc1nc2ccccc2c(=O)[nH]1 [Compound 68]
IC50 [1]: > 10 µM
reduction in the PARPi activity compared with compound 57 [1]: at least four-fold

Compound: O=C(c1cc(Cc2n[nH]c(=O)c3ccccc23)ccc1F)N1CCN(C(=O)C2CC2)CC1 [OLP, olaparib]
cytotoxic activity as a monotherapy against MDA-MB-468 ([2]; 72 h): good and selective cytotoxic activity
IC10 (CV cytotoxicity assay) ([2]; MDA-MB-468 cells, 72 h): 1.56 µM

Further lines, with some results ahead:

decline in PARPi activity compared with compound 54 [1]: at least three-fold
Compound: O=C(Nc1nc2c(c(=O)[nH]1)CCCC2)c1ccc(Cl)cc1 [Compound 32]

decline in PARPi activity compared with compound 54 [1]: at least three-fold
Compound: Cc1ccc(C(=O)Nc2nc3c(c(=O)[nH]2)CCCC3)cc1 [Compound 34]

IC50 [1]: 3.01 ± 1.19 µM
inhibition at 10 µM [1]: > 50%
Compound: COc1ccc(NCc2nnc(O)c3ccccc23)cc1 [Compound 45]

IC50 [1]: 4.56 µM
inhibition at 10 µM [1]: > 50%
PARPi activity at the enzyme level compared to the OLP core structure phthalazin-1(2H)-one [1]: two-fold higher
Compound: O=C(Nc1nc2c(c(=O)[nH]1)CCCC2)c1ccc(F)cc1 [Compound 54]

IC50 [1]: 6.61 ± 2.09 µM
inhibition at 10 µM [1]: > 50%
Compound: O=c1[nH]nc(-c2ccccc2)c2ccccc12 [Compound 56]

IC50 [1]: 2.3 µM and 2.32 µM
inhibition at 10 µM [1]: > 50%
fold higher hPARP-1-inhibiting activity compared to core structure quinazolin-4(3H)-one ([1]; own IC50 vs literature IC50 5.8 µM): 2.5 fold
PARPi activity at the enzyme level compared to the OLP core structure phthalazin-1(2H)-one [1]: five-fold higher
Compound: CSc1nc2ccccc2c(=O)[nH]1 [Compound 57, 2-(methylthio)quinazolin-4(3H)-one]
cytotoxic activity as a monotherapy against MDA-MB-468 ([2]; 72 h): such an effect was not observed
synergistic improvement of the TMZ activity by co-treatment ([2]; co-treatment at IC10 (100 µM compound 57), 72 h): did not induce a synergistic improvement
IC10 (CV cytotoxicity assay) ([3]; BT-474 cells, 72 h): 100 µM
displacement of PARPi-FL from nuclear hPARP-1 (fluorescence) [4]: failed to reach the nuclei of BT-474 cells; also recorded: did not impact the fluorescent appearance of the stain

IC50 [1]: > 10 µM
Compound: CSc1nc2ccccc2c(=O)n1Cc1ccccc1 [Compound 63]
hPARP-1 inhibitor activity compared with compound 57 (SAR, in words) [1]: complete abolishment of hPARP-1 inhibitor activity

hPARP-1 inhibitor activity compared with compound 57 (SAR, in words) [1]: dramatic decrease in activity
IC50 [1]: > 10 µM
Compound: CSc1nc2ccc([N+](=O)[O-])cc2c(=O)[nH]1 [Compound 65]

hPARP-1 inhibitor activity compared with compound 57 (SAR, in words) [1]: dramatic decrease in activity
IC50 [1]: > 10 µM
Compound: CSc1nc2cc([N+](=O)[O-])ccc2c(=O)[nH]1 [Compound 66]

IC50 [1]: > 10 µM
reduction in the PARPi activity compared with compound 57 [1]: at least four-fold
Compound: C=CCSc1nc2ccccc2c(=O)[nH]1 [Compound 67]

IC50 [1]: > 10 µM
reduction in the PARPi activity compared with compound 57 [1]: at least four-fold
Compound: O=c1[nH]c(SCCC(F)=C(F)F)nc2ccccc12 [Compound 69]

IC50 ([2]; Homo sapiens, MDA-MB-468, 72 h, read-out: IC50 of TMZ, alone or combined): 2060 ± 790 µM
IC50 ([3]; Homo sapiens, BT-474, 72 h, read-out: IC50 of TMZ, alone or combined): 2210 ± 10 µM
IC50 [6]: 3740 ± 1500 µM
IC50 [7]: 3440 ± 1720 µM
Compound: Cn1nnc2c(C(N)=O)ncn2c1=O [TMZ, temozolomide]
IC50 [5]: 980 ± 820 µM
